Measurements published in ChEMBL document CHEMBL1201862, “PubChem BioAssay data set” (2004).
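1) Cells in 96-well plates. 2) Compound, 48 h, 5 concentrations. 3) Linear interpolation between surrounding doses. 4) Unreached endpoint = highest concentration. GI50 is the concentration that inhibits growth by half.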 The source made the active and inactive calls. Rule as the data show it: active = GI50 up to about 1.1 µM and inactive = higher.

Assays:
Test in all cases: NCI tumour cell line growth inhibition, 48 h
HCC 2998 = tested on: HCC 2998
T47D = tested on: T47D
HOP-92 = tested on: HOP-92
OVCAR-3 = tested on: OVCAR-3
KM12 = tested on: KM12
NCI-H522 = tested on: NCI-H522
DU-145 = tested on: DU-145
UO-31 = tested on: UO-31
A498 = tested on: A498
SW-620 = tested on: SW-620
SK-OV-3 = tested on: SK-OV-3
CAKI-1 = tested on: CAKI-1
UACC-257 = tested on: UACC-257
SN12C = tested on: SN12C
Hs-578T = tested on: Hs-578T
BT-549 = tested on: BT-549
PC-3 = tested on: PC-3
TK-10 = tested on: TK-10
ACHN = tested on: ACHN
RPMI-8226 = tested on: RPMI-8226
OVCAR-4 = tested on: OVCAR-4
SNB-19 = tested on: SNB-19
HL-60 = tested on: HL-60
SR = tested on: SR
CCRF-CEM = tested on: CCRF-CEM
SF-539 = tested on: SF-539
OVCAR-5 = tested on: OVCAR-5
MDA-MB-435 = tested on: MDA-MB-435
IGROV-1 = tested on: IGROV-1
NCI/ADR-RES = tested on: NCI/ADR-RES
Malme-3M = tested on: Malme-3M
COLO 205 = tested on: COLO 205
MDA-N = tested on: MDA-N
HT-29 = tested on: HT-29
SF-268 = tested on: SF-268
K562 = tested on: K562
NCI-H460 = tested on: NCI-H460
MDA-MB-231 = tested on: MDA-MB-231
NCI-H226 = tested on: NCI-H226
A549 = tested on: A549
NCI-H23 = tested on: NCI-H23
HCT-116 = tested on: HCT-116
MOLT-4 = tested on: MOLT-4
M14 = tested on: M14
OVCAR-8 = tested on: OVCAR-8
SK-MEL-2 = tested on: SK-MEL-2
HOP-62 = tested on: HOP-62
LOX IMVI = tested on: LOX IMVI
EKVX = tested on: EKVX
U-251 = tested on: U-251
UACC-62 = tested on: UACC-62
MCF7 = tested on: MCF7
SK-MEL-28 = tested on: SK-MEL-28
HCT-15 = tested on: HCT-15
SF-295 = tested on: SF-295
RXF 393 = tested on: RXF 393
786-0 = tested on: 786-0
SK-MEL-5 = tested on: SK-MEL-5

O=C(COC(c1ccc(F)cc1)c1ccc(F)cc1)N1CCN(CCCc2ccccc2)CC1
GI50 (HCC 2998): 3.59 µM (inactive) | GI50 (T47D): 3.3 µM (inactive) | GI50 (HOP-92): 2.55 µM (inactive) | GI50 (OVCAR-3): 4.29 µM (inactive) | GI50 (KM12): 4.06 µM (inactive) | GI50 (NCI-H522): 4.4 µM (inactive) | GI50 (DU-145): 4.44 µM (inactive) | GI50 (UO-31): 1.7 µM (inactive) | GI50 (A498): 3.08 µM (inactive) | GI50 (SW-620): 5.15 µM (inactive) | GI50 (SK-OV-3): 6.97 µM (inactive) | GI50 (CAKI-1): 2.05 µM (inactive) | GI50 (UACC-257): 3.38 µM (inactive) | GI50 (SN12C): 3.01 µM (inactive) | GI50 (Hs-578T): 11.1 µM (inactive) | GI50 (BT-549): 3.02 µM (inactive) | GI50 (PC-3): 3.37 µM (inactive) | GI50 (TK-10): 5.35 µM (inactive) | GI50 (ACHN): 3.52 µM (inactive) | GI50 (RPMI-8226): 3.39 µM (inactive) | GI50 (OVCAR-4): 3.24 µM (inactive) | GI50 (SNB-19): 4.22 µM (inactive) | GI50 (HL-60): 3.31 µM (inactive) | GI50 (SR): 3.54 µM (inactive) | GI50 (CCRF-CEM): 7.62 µM (inactive) | GI50 (SF-539): 5.2 µM (inactive) | GI50 (OVCAR-5): 4.15 µM (inactive) | GI50 (MDA-MB-435): 3.67 µM (inactive) | GI50 (IGROV-1): 5.37 µM (inactive) | GI50 (NCI/ADR-RES): 2.72 µM (inactive) | GI50 (Malme-3M): 4.68 µM (inactive) | GI50 (COLO 205): 1.79 µM (inactive) | GI50 (MDA-N): 3.74 µM (inactive) | GI50 (HT-29): 3.17 µM (inactive) | GI50 (SF-268): 3.88 µM (inactive) | GI50 (K562): 3.88 µM (inactive) | GI50 (NCI-H460): 3.57 µM (inactive) | GI50 (MDA-MB-231): 3.22 µM (inactive) | GI50 (NCI-H226): 3.01 µM (inactive) | GI50 (A549): 3.93 µM (inactive) | GI50 (NCI-H23): 1.76 µM (inactive) | GI50 (HCT-116): 2.88 µM (inactive) | GI50 (MOLT-4): 4.66 µM (inactive) | GI50 (M14): 4.32 µM (inactive) | GI50 (OVCAR-8): 3.54 µM (inactive) | GI50 (SK-MEL-2): 3.87 µM (inactive) | GI50 (HOP-62): 6.52 µM (inactive) | GI50 (LOX IMVI): 4.91 µM (inactive) | GI50 (EKVX): 4.44 µM (inactive) | GI50 (U-251): 4.16 µM (inactive) | GI50 (UACC-62): 4.26 µM (inactive) | GI50 (MCF7): 3.32 µM (inactive) | GI50 (SK-MEL-28): 15.6 µM (inactive) | GI50 (HCT-15): 3.75 µM | GI50 (SF-295): 4.04 µM (inactive) | GI50 (RXF 393): 3.22 µM (inactive) | GI50 (786-0): 3.94 µM (inactive) | GI50 (SK-MEL-5): 2.65 µM (inactive)

N#Cc1c(Cl)cccc1Oc1ccc(S(=O)(=O)N/C(=N\O)Nc2ccc(Cl)cc2)cc1
GI50 (HCC 2998): 14.7 µM (inactive) | GI50 (T47D): 13.2 µM (inactive) | GI50 (HOP-92): 11 µM (inactive) | GI50 (OVCAR-3): 15.8 µM (inactive) | GI50 (KM12): 17.2 µM (inactive) | GI50 (NCI-H522): 18 µM (inactive) | GI50 (DU-145): 18.8 µM (inactive) | GI50 (UO-31): 14.2 µM (inactive) | GI50 (A498): 15.3 µM (inactive) | GI50 (SW-620): 17.6 µM (inactive) | GI50 (CAKI-1): 15.5 µM (inactive) | GI50 (UACC-257): 16.9 µM (inactive) | GI50 (SN12C): 14.8 µM (inactive) | GI50 (Hs-578T): 27.4 µM (inactive) | GI50 (BT-549): 16.4 µM (inactive) | GI50 (PC-3): 16.4 µM (inactive) | GI50 (TK-10): 16.6 µM (inactive) | GI50 (ACHN): 15.6 µM (inactive) | GI50 (RPMI-8226): 30.4 µM (inactive) | GI50 (OVCAR-4): 14.8 µM (inactive) | GI50 (SNB-19): 16.3 µM (inactive) | GI50 (HL-60): 12.1 µM (inactive) | GI50 (SR): 23.9 µM (inactive) | GI50 (CCRF-CEM): 18.9 µM (inactive) | GI50 (SF-539): 17.7 µM (inactive) | GI50 (OVCAR-5): 19.3 µM (inactive) | GI50 (MDA-MB-435): 17.9 µM (inactive) | GI50 (IGROV-1): 16.3 µM (inactive) | GI50 (NCI/ADR-RES): 20.7 µM (inactive) | GI50 (Malme-3M): 19.2 µM (inactive) | GI50 (COLO 205): 18.2 µM (inactive) | GI50 (MDA-N): 16.4 µM (inactive) | GI50 (HT-29): 17.3 µM (inactive) | GI50 (SF-268): 19.9 µM (inactive) | GI50 (K562): 24.2 µM (inactive) | GI50 (NCI-H460): 17.9 µM (inactive) | GI50 (MDA-MB-231): 16.3 µM (inactive) | GI50 (NCI-H226): 24.8 µM (inactive) | GI50 (A549): 16.8 µM (inactive) | GI50 (NCI-H23): 17.6 µM (inactive) | GI50 (HCT-116): 14.2 µM (inactive) | GI50 (MOLT-4): 18.4 µM (inactive) | GI50 (M14): 15.7 µM (inactive) | GI50 (OVCAR-8): 18 µM (inactive) | GI50 (SK-MEL-2): 17.6 µM (inactive) | GI50 (HOP-62): 17.5 µM (inactive) | GI50 (LOX IMVI): 16 µM (inactive) | GI50 (EKVX): 15.5 µM (inactive) | GI50 (U-251): 17 µM (inactive) | GI50 (UACC-62): 15.5 µM (inactive) | GI50 (MCF7): 17.1 µM (inactive) | GI50 (SK-MEL-28): 19.9 µM (inactive) | GI50 (HCT-15): 17.3 µM | GI50 (SF-295): 17.2 µM (inactive) | GI50 (RXF 393): 17.9 µM (inactive) | GI50 (786-0): 13.6 µM (inactive) | GI50 (SK-MEL-5): 17.2 µM (inactive)
